Results on one compound are retold here after patent publication US9352013B2, “Uses of bremelanotide in therapy for female sexual dysfunction” (Palatin Technologies, Inc., priority 2012, dated 2016).

In one data set the test system is female rats. The following applies: cited from earlier work.
The subject of data set [1] is premenopausal females with FSAD and/or HSDD. As to the kind of experiment: Example 1: placebo-controlled at-home trial of subcutaneous bremelanotide, efficacy (SSEs, FSFI, FSDS-DAO). Type of data set: in vivo, human. The method, then: A multi-centered, placebo-controlled, randomized, parallel group trial with fixed dose levels and designed to identify appropriate doses of bremelanotide administered by subcutaneous injection in premenopausal females with FSAD and/or HSDD, under the conditions of home use, was conducted. Subjects received a single dose of placebo (subject-blinded) in-clinic followed by 4 weeks of subject-blinded placebo treatment at home (subjects self-administered treatment as needed). Subjects who continued to qualify for the trial then received 2 single in-clinic doses of randomized treatment (double-blind; approximately one week apart), followed by 12 weeks of double-blind treatment at home (subjects self-administered treatment as needed).
Subjects were randomized (1:1:1:1) to one of four study treatment groups (placebo or doses with 0.75, 1.25, or 1.75 mg net weight bremelanotide). Randomization occurred immediately prior to the first in-clinic dose of double-blind treatment. Study drug and placebo was provided as pre-filled syringes in 0.3 mL volume, with subjects instructed on self-administration into the anterior thigh or abdomen.
Enrolled subjects were premenopausal women who met the diagnostic criteria for FSAD, HSDD, or mixed FSAD/HSDD, utilizing a diagnostic screening guide including categorization of the sexual dysfunction as both acquired (vs. lifelong) and generalized (vs. situational). Subjects enrolled had previously been sexually “functional;” that is, experienced sexual arousal during sexual activity and/or a normal level of desire at some point in the past for a period of at least 2 years.
Enrolled subjects were provided with an electronic diary system (eDiary) with instructions to complete an FSEP-R questionnaire with each sexual encounter. At selected in-clinic visits, subjects completed other assessment questionnaires, including SIDI-F, FSDS-DAO, FSFI, GAQ and WITS-9. In addition, various vital sign measures were conducted and blood and urine samples collected at selected in-clinic visits.
The measurement period was defined as the number of events during the last four weeks of treatment minus the number of events during the baseline period, with outcomes reported for pooled results of women taking the two highest bremelanotide dose levels versus placebo.
The FSFI is a 19-item questionnaire which provides for an additional measurement of changes over a longer recall period. • FSFI total score improvement (mean change of 3.55 vs. 1.88, p=0.0017) • Reduced associated distress related to sexual dysfunction, as measured by the Female Sexual Distress Scale-DAO (FSDS-DAO). The FSDS-DAO 15-item questionnaire is designed to assess and quantify the change in personal distress associated with FSD. • FSDS-DAO total score improvement (mean change of −11.1 vs. −6.8, p=0.036).

Data set [2] in a line: Phase 2 intranasal trials: plasma concentration after 10 mg intranasal dose. Type of data set: in vivo. The note with it: female, human, inhaled or intranasal, premenopausal, 30 minutes post dosing. On the procedure:
In the bremelanotide premenopausal arm, 42.5% of the subjects were discontinued due to hypertension, nausea, vomiting or myalgia. Subjects received a 10 mg intranasal dose of bremelanotide, with premenopausal subjects determined to have a mean plasma concentration of 88.5±51.9 ng/mL and a % CV of 58.6, and postmenopausal subjects determined to have a mean plasma concentration of 93.2±68.5 ng/mL and a % CV of 73.5. The minimum and maximum plasma concentration levels for all women at thirty minutes post dose range from 0.0 ng/mL to 207.0 ng/mL.
In the intranasal study, premenopausal women self-administered a 10 mg intranasal dose.

Data set [3] can be described thus: Adverse events with single-dose SC administration (Trials-14, -06, -10). Type of data set: in vivo, human. The method, then: Subcutaneous dosing was tested in 5 Phase 1 trials (3 in females, 2 in males) and one Phase 2 trial (males). The most common adverse events associated with single-dose SC bremelanotide administration (Trials-14, -06, and -10) were somnolence (30%), flushing (15%), nausea (19%), and vomiting (10%).

Data set [4] in a line: Subcutaneous trial in males: vomiting. The note with it: males. Type of data set: in vivo, human. The method, then: In a trial in males, 1 of 6 subjects at the 5-mg dose level, 1 of 6 subjects at the 7.5 mg dose level, and 3 of 6 subjects at the 10-mg dose level experienced vomiting that was mild or moderate in intensity and delayed 6 to 15 hours.
Data set [5] has as its system healthy adult female subjects. As to the kind of experiment: Phase 1 dose escalation, subcutaneous: vaginal photoplethysmography (vaginal pulse amplitude). Type of data set: in vivo, human. The method, then: In a double-blind, placebo-controlled, single dose, dose escalation Phase 1 study to determine the maximum tolerated dose in healthy adult female subjects, doses of from 0.3 to 5.0 mg (0.3, 1.0, 3.0 and 5.0 mg) of bremelanotide were administered by subcutaneous injection. However, this study specifically excluded women with a diagnosis of FSD, and thus could not determine an effective dose for treatment of FSD. The study did employ a measure of pharmacodynamic effect, defined as an increase of sexual arousal response in the presence of visual sexual stimulation as measured by vaginal blood flow with vaginal photoplethysmography (using a Geer gauge device), which measures vaginal pulse amplitude.

Structures are written as SMILES. Read-outs that look alike come from different tables or passages of the source.

In the case of `CCCC[C@H](NC(C)=O)C(=O)N[C@H]1CC(=O)NCCCC[C@@H](C(=O)O)NC(=O)[C@H](Cc2c[nH]c3ccccc23)NC(=O)[C@H](CCCNC(=N)N)NC(=O)[C@@H](Cc2ccccc2)NC(=O)[C@H](Cc2c[nH]cn2)NC1=O` [bremelanotide, Ac-Nle-cyclo(-Asp-His-D-Phe-Arg-Trp-Lys)-OH], in the data set on female rats, the “Effect on appetitive sexual behavior” value is “selective pharmacological effect on appetitive sexual behavior was observed”. The “Dopamine release in the medial preoptic area” value with female rats (subcutaneous injections) is listed as “increasing dopamine release”. For the same compound, in the data set on female rats (subcutaneous injections), the “Immediate-early gene product Fos in limbic and hypothalamic structures” value is “inducing”. In addition, the “Frequency of Satisfying Sexual Events (SSEs), mean at end of study” value in data set [1] (pooled 1.25 mg and 1.75 mg SC, from 1.6 at baseline, placebo 1.7 to 1.9) is recorded as 2.4. Further, in data set [1] (pooled 1.25 mg and 1.75 mg SC, placebo 1.88), the “FSFI total score improvement, mean change from baseline to end of study” value was 3.55. Also, the “FSDS-DAO total score improvement, mean change from baseline to end of study” value in data set [1] (pooled 1.25 mg and 1.75 mg SC, placebo −6.8) is on record as −11.1. Besides, the “Increase in SSEs” value in data set [1] (pooled 1.25 mg and 1.75 mg SC, versus 12% with placebo) is 50%. The “Efficacy in premenopausal women with FSDs” value in data set [1] (self-administered at home at 1.25 and 1.75 mg SC) is “effective in decreasing distress, increasing arousal and desire, and increasing the number of SSEs”. Also, the “Percentage of women with end-of-study FSFI and FSDS-DAO total score levels above 26.5 and 18” value in data set [1] (versus placebo, exploratory analysis) is “higher percentage”. Further, the Cmax at 30 min in data set [2] (read-out: Cmax / plasma concentration, mean) was found to be 88.5 ± 51.9 ng/mL; in data set [2] (read-out: Cmax, maximum) it was 207 ng/mL; in data set [2] (read-out: Cmax, median) it was 81.1 ng/mL. The “Adverse event: flushing” value in data set [3] is 15%. Moreover, the “Adverse event: nausea” value in data set [3] stood at 19%. Moreover, the “Adverse event: somnolence” value in data set [3] was determined as 30%. The “Adverse event: vomiting” value in data set [3] came out at 10%. Besides, the “Subjects who experienced vomiting” value is on record as 1 of 6 in data set [4] (7.5 mg dose level), 1 of 6 in data set [4] (5-mg dose level) and 3 of 6 in data set [4] (10-mg dose level). Besides, the “Pharmacodynamic effect (vaginal pulse amplitude with visual sexual stimulation)” value in data set [5] (0.3 or 1.0 mg SC, compared to placebo or baseline) is listed as “no apparent pharmacodynamic effect”; in data set [5] (3 and 5 mg SC), “statistically significant pharmacodynamic effect”. In data set [5] (normal female volunteers), the “Subcutaneous dose at which a pharmacodynamics effect was seen” value is not below 3 mg.
